Measured values from article PMC7048748, “Anxiolytic Drug FGIN-1-27 Ameliorates Autoimmunity by Metabolic Reprogramming of Pathogenic Th17 Cells” (Scientific Reports, 2020).

Test system: Th17 cells
Assay: Lipidomics of Th17 cells
Format: cell-based, mouse
Design: key to nCE(16:0) / nCE(18:2) / nDCER(22:0) / nDCER[FA14:0] / nFFA(12:0) / nFFA(14:1) / nFFA(18:4) / nCE(22:0) / nCE(22:6) / nCE(24:1) / nCE[FA14:1] / nCE(12:0) / nCE[FA16:0] / nCE[FA17:0] / nCE[FA18:2] / nCE[FA22:6]: mole percent of each fatty acid within its lipid class
Protocol: Specific cholesterol precursors like desmosterol and oxysterols, such as 7β, 27-dihydroxycholesterol (7β, 27-OHC), have been identified as ligands for RORγt[21],[22] and shown to modulate Th17 differentiation. […] Next, we extended our studies to lipid metabolites and profiled the lipidome of Th17 cells treated with DMSO or FGIN-1-27.
(a) Quantitation of cholesterol esters, triacylglycerols (TAGs), phosphatidylethanolamine (PE) and phosphatidylcholine (PC) in Th17 cells 72 hours after treatment with FGIN-1-27. The error bars represent SD. (b) Heat map showing fatty acid composition (mole percent) for different lipid classes after treatment with FGIN-1-27. (c) Pie charts showing proportions of different fatty acid classes namely PUFAs, MUFAs, ODD and SFAs within the cholesterol esters. (d) Transcript analysis for CD5L 72 hours post treatment with FGIN-1-27. The error bars represent SD.
Th17 cells were differentiated from naïve purified CD4 T cells and treated with either FGIN-1-27 (10 µM) or DMSO during polarization. 10 million cells/treatment were harvested and snap frozen. […] The extracts were concentrated under nitrogen and reconstituted in 0.25 mL of dichloromethane:methanol (50:50) containing 10 mM ammonium acetate. The extracts were placed in vials for infusion-MS analyses, performed on a SelexION equipped Sciex 5500 QTRAP using both positive and negative mode electrospray. Each sample was subjected to 2 analyses, with IMS-MS conditions optimized for lipid classes monitored in each analysis. The 5500 QTRAP was operated in MRM mode to monitor the transitions for over 1,100 lipids from up to 14 lipid classes. Individual lipid species were quantified based on the ratio of signal intensity for target compounds to the signal intensity for an assigned internal standard of known concentration. Lipid class concentrations were calculated from the sum of all molecular species within a class, and fatty acid compositions were determined by calculating the proportion of individual fatty acids within each class.

SMILES: CCCCCCN(CCCCCC)C(=O)Cc1c(-c2ccc(F)cc2)[nH]c2ccccc12 [FGIN-1-27, N, N-di-n-hexyl 2-(4-fluorophenyl) indole-3-acetamide]
- down-regulation of cholesterol esters (72 hours, 10 µM): 5 folds
- reduction in triacylglycerides (TAGs) (72 hours, 10 µM): 2 fold
- MUFA proportion within the cholesterol esters (Fig. 6c pie chart): 39%
- ODD proportion within the cholesterol esters (Fig. 6c pie chart): 10%
- PUFA proportion within the cholesterol esters (Fig. 6c pie chart): 14%
- SFA proportion within the cholesterol esters (Fig. 6c pie chart): 37%
- nCE (Th17 cells, 10 µM): 0.3432
- nCE(12:0) (Th17 cells, 10 µM): 0.3209
- nCE(14:0) (Th17 cells, 10 µM): 7.863
- nCE(14:1) (Th17 cells, 10 µM): 0.8946
- nCE(15:0) (Th17 cells, 10 µM): 6.739
- nCE(16:0) (Th17 cells, 10 µM): 20.165
- nCE(16:1) (Th17 cells, 10 µM): 5.753
- nCE(17:0) (Th17 cells, 10 µM): 3.887
- nCE(18:0) (Th17 cells, 10 µM): 9.753
- nCE(18:1) (Th17 cells, 10 µM): 25.3604
- nCE(18:2) (Th17 cells, 10 µM): 6.676
- nCE(18:3) (Th17 cells, 10 µM): 0.6485
- nCE(18:4) (Th17 cells, 10 µM): 0.0392
- nCE(20:0) (Th17 cells, 10 µM): 0.838
- nCE(20:1) (Th17 cells, 10 µM): 1.913
- nCE(20:2) (Th17 cells, 10 µM): 0.3245
- nCE(20:3) (Th17 cells, 10 µM): 0.8988
- nCE(20:4) (Th17 cells, 10 µM): 3.812
- nCE(20:5) (Th17 cells, 10 µM): 0.1401
- nCE(22:0) (Th17 cells, 10 µM): 0.2674
- nCE(22:1) (Th17 cells, 10 µM): 0.4486
- nCE(22:2) (Th17 cells, 10 µM): 0.3494
- nCE(22:4) (Th17 cells, 10 µM): 0.2548
- nCE(22:5) (Th17 cells, 10 µM): 0.2179
- nCE(22:6) (Th17 cells, 10 µM): 0.5711
- nCE(24:0) (Th17 cells, 10 µM): 0.624
- nCE(24:1) (Th17 cells, 10 µM): 1.24
- nCER (Th17 cells, 10 µM): 0.6286
- nCER(14:0) (Th17 cells, 10 µM): 0.8623
- nCER(16:0) (Th17 cells, 10 µM): 27.3543
- nCER(18:0) (Th17 cells, 10 µM): 2.572
- nCER(18:1) (Th17 cells, 10 µM): 0.1145
- nCER(20:0) (Th17 cells, 10 µM): 2.068
- nCER(20:1) (Th17 cells, 10 µM): 0.05342
- nCER(22:0) (Th17 cells, 10 µM): 7.074
- nCER(22:1) (Th17 cells, 10 µM): 0.4579
- nCER(24:0) (Th17 cells, 10 µM): 30.2198
- nCER(24:1) (Th17 cells, 10 µM): 28.2356
- nCER(26:0) (Th17 cells, 10 µM): 0.4655
- nCER(26:1) (Th17 cells, 10 µM): 0.5227
- nCER[FA14:0] (Th17 cells, 10 µM): 0.8623
- nCER[FA16:0] (Th17 cells, 10 µM): 27.3543
- nCER[FA18:0] (Th17 cells, 10 µM): 2.572
- nCER[FA18:1] (Th17 cells, 10 µM): 0.1145
- nCER[FA20:0] (Th17 cells, 10 µM): 2.068
- nCER[FA20:1] (Th17 cells, 10 µM): 0.05342
- nCER[FA22:0] (Th17 cells, 10 µM): 7.074
- nCER[FA22:1] (Th17 cells, 10 µM): 0.4579
- nCER[FA24:0] (Th17 cells, 10 µM): 30.2198
- nCER[FA24:1] (Th17 cells, 10 µM): 28.2356
- nCER[FA26:0] (Th17 cells, 10 µM): 0.4655
- nCER[FA26:1] (Th17 cells, 10 µM): 0.5227
- nCE[FA12:0] (Th17 cells, 10 µM): 0.3209
- nCE[FA14:0] (Th17 cells, 10 µM): 7.863
- nCE[FA14:1] (Th17 cells, 10 µM): 0.8946
- nCE[FA15:0] (Th17 cells, 10 µM): 6.739
- nCE[FA16:0] (Th17 cells, 10 µM): 20.165
- nCE[FA16:1] (Th17 cells, 10 µM): 5.753
- nCE[FA17:0] (Th17 cells, 10 µM): 3.887
- nCE[FA18:0] (Th17 cells, 10 µM): 9.753
- nCE[FA18:1] (Th17 cells, 10 µM): 25.3604
- nCE[FA18:2] (Th17 cells, 10 µM): 6.676
- nCE[FA18:3] (Th17 cells, 10 µM): 0.6485
- nCE[FA18:4] (Th17 cells, 10 µM): 0.0392
- nCE[FA20:0] (Th17 cells, 10 µM): 0.838
- nCE[FA20:1] (Th17 cells, 10 µM): 1.913
- nCE[FA20:2] (Th17 cells, 10 µM): 0.3245
- nCE[FA20:3] (Th17 cells, 10 µM): 0.8988
- nCE[FA20:4] (Th17 cells, 10 µM): 3.812
- nCE[FA20:5] (Th17 cells, 10 µM): 0.1401
- nCE[FA22:0] (Th17 cells, 10 µM): 0.2674
- nCE[FA22:1] (Th17 cells, 10 µM): 0.4486
- nCE[FA22:2] (Th17 cells, 10 µM): 0.3494
- nCE[FA22:4] (Th17 cells, 10 µM): 0.2548
- nCE[FA22:5] (Th17 cells, 10 µM): 0.2179
- nCE[FA22:6] (Th17 cells, 10 µM): 0.5711
- nCE[FA24:0] (Th17 cells, 10 µM): 0.624
- nCE[FA24:1] (Th17 cells, 10 µM): 1.24
- nDAG (Th17 cells, 10 µM): 2.149
- nDAG(12:0/16:0) (Th17 cells, 10 µM): 0.1725
- nDAG(12:0/18:0) (Th17 cells, 10 µM): 0.3066
- nDAG(12:0/18:1) (Th17 cells, 10 µM): 0.3287
- nDAG(12:0/18:2) (Th17 cells, 10 µM): 0.07889
- nDAG(14:0/14:0) (Th17 cells, 10 µM): 0.8017
- nDAG(14:0/16:0) (Th17 cells, 10 µM): 9.103
- nDAG(14:0/16:1) (Th17 cells, 10 µM): 1.239
- nDAG(14:0/18:1) (Th17 cells, 10 µM): 2.636
- nDAG(14:0/18:2) (Th17 cells, 10 µM): 0.1578
- nDAG(14:0/18:3) (Th17 cells, 10 µM): 0.01025
- nDAG(14:0/20:0) (Th17 cells, 10 µM): 0.2618
- nDAG(14:0/20:4) (Th17 cells, 10 µM): 0.02818
- nDAG(14:0/22:6) (Th17 cells, 10 µM): 0.05137
- nDAG(14:1/16:0) (Th17 cells, 10 µM): 0.2729
- nDAG(14:1/18:1) (Th17 cells, 10 µM): 0.217
- nDAG(15:0/18:1) (Th17 cells, 10 µM): 0.2893
